In the assay the target is T1, human PD-1 / PD-L1-Ig binding on Jurkat cell line over-expressing human PD-1 (Jurkat-PD-1) (Homo sapiens, UniProt Q15116).
T1 construct: expressed in transfected cells; host or cells: Jurkat
The assay can be described thus: Jurkat-PD-1 Cell Binding High-Content Screening Assay (CBA). The format is cell-based. As to conditions: Jurkat-PD-1 cells, PE-labeled PD-L1-Ig 20 nM final; read-out: Jurkat HPD1_PDL1 IC50. The procedure, abridged:
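PE-PD-L1-Ig 20 nM final; cells in DMEM/10% FCS; cpd pre-incubation 2 h, 37° C; ligand 1 h; PFA fix + Hoechst 33342; high-content imaging read-out.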

Where a SMILES comes first, the peptide text is derived from it. Bridges are numbered along the chain shown (N, C = ends). [ ]: non-standard residue; d: D form. The star is where a group is joined. ξ: configuration not given here. Trp(5-CN) = N#Cc1ccc2[nH]cc(C[C@H](N)C(=O)O)c2c1; Phe(3-CF3) = N[C@@H](Cc1cccc(C(F)(F)F)c1)C(=O)O; Ala(morpholin-4-yl) = N[C@@H](CN1CCOCC1)C(=O)O; Phe(4-COOH) = N[C@@H](Cc1ccc(C(=O)O)cc1)C(=O)O; Bip = N[C@@H](Cc1ccc(-c2ccccc2)cc1)C(=O)O; Phe(3-F) = N[C@@H](Cc1cccc(F)c1)C(=O)O; Phe(3-Me) = Cc1cccc(C[C@H](N)C(=O)O)c1; d(aThr) = C[C@@H](O)[C@@H](N)C(=O)O; Val(3-OH) = CC(C)(O)[C@H](N)C(=O)O; 4Pal = N[C@@H](Cc1ccncc1)C(=O)O; 2Thi = N[C@@H](Cc1cccs1)C(=O)O; Cha = N[C@@H](CC1CCCCC1)C(=O)O; Cit = NC(=O)NCCC[C@H](N)C(=O)O; Thr(3ξ) = CC(O)[C@H](N)C(=O)O; Carboxymethyl = O=C(O)C*; Nle = CCCC[C@H](N)C(=O)O; Orn = NCCC[C@H](N)C(=O)O; Pra = C#CC[C@H](N)C(=O)O; Dab = NCC[C@H](N)C(=O)O; Dap = NC[C@H](N)C(=O)O

T1 sequence (Q15116 25-288): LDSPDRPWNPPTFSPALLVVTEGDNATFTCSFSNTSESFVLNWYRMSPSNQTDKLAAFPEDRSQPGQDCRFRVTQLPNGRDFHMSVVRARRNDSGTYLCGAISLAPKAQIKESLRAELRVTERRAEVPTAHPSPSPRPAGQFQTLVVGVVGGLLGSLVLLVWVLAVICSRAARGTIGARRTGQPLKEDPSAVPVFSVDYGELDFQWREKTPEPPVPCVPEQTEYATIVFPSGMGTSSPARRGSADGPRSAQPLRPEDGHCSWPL

Usually IC50 stands for the concentration that gives 50% inhibition. Regarding `CC(C)C[C@H]1NC(=O)[C@H](CCCN)NC(=O)[C@H](CCC(=O)O)NC(=O)[C@H](Cc2ccc(-c3ccccc3)cc2)NC(=O)[C@H](C(C)C)NC(=O)[C@H](Cc2cccs2)NC(=O)[C@H](CC(=O)O)NC(=O)[C@H](Cc2ccncc2)NC(=O)[C@H](Cc2ccccc2)NC(=O)CSC[C@@H](C(=O)N[C@@H](C)C(N)=O)NC(=O)[C@H]([C@@H](C)O)NC(=O)[C@H](C(C)C)NC(=O)[C@H](CC2CCCCC2)NC(=O)[C@H](CCN)NC1=O` [Compound 2200] ({CH2CO}-F[4Pal]D[2Thi]V[Bip]E[Orn][dL][Dab][Cha]VTCA-NH2; thioether N-14), the IC50 stood at 10.2 nM.

For `C#CC[C@H](NC(=O)[C@H](CCN)NC(=O)[C@@H]1CSCC(=O)N[C@@H](CCCN)C(=O)N[C@@H](Cc2ccc(OCC(=O)O)cc2)C(=O)N[C@@H](CC(=O)O)C(=O)N[C@@H](Cc2cccc(C)c2)C(=O)N[C@@H](Cc2ccc(OCC(=O)O)cc2)C(=O)N[C@@H](Cc2ccc(-c3ccccc3)cc2)C(=O)N[C@@H](Cc2ccc(OCC(=O)O)cc2)C(=O)N[C@@H](CCCN)C(=O)N[C@H](CC(C)C)C(=O)N[C@@H](CCN)C(=O)N[C@@H](CC2CCCCC2)C(=O)N[C@@H](C(C)C)C(=O)N[C@@H](CO)C(=O)N1)C(N)=O` [Compound 1855] ({CH2CO}-[Orn]Y(Carboxymethyl)D[Phe(3-Me)]Y(Carboxymethyl)[Bip]Y(Carboxymethyl)[Orn][dL][Dab][Cha]VSC[Dab][Pra]-NH2; thioether N-14), the IC50 was 6.8 nM.

As to `CC(C)C[C@H]1NC(=O)[C@H](CCCN)NC(=O)[C@H](C(C)C)NC(=O)[C@H](Cc2ccc(-c3ccccc3)cc2)NC(=O)[C@H](C(C)C)NC(=O)[C@H](Cc2c[nH]c3ccccc23)NC(=O)[C@H](CC(=O)O)NC(=O)[C@H](Cc2ccc(OCC(=O)O)cc2)NC(=O)[C@H](CN)NC(=O)CSC[C@@H](C(=O)N[C@@H](C)C(N)=O)NC(=O)[C@H]([C@@H](C)O)NC(=O)[C@H](C(C)C)NC(=O)[C@H](CC2CCCCC2)NC(=O)[C@H](CCC(N)=O)NC1=O` [Compound 1520] ({CH2CO}-[Dap]Y(Carboxymethyl)DWV[Bip]V[Orn][dL]Q[Cha]VTCA-NH2; thioether N-14), the IC50 was 10.5 nM.

For the compound `CC(C)C[C@H]1NC(=O)[C@H](CCCN)NC(=O)[C@H](CCC(=O)O)NC(=O)[C@H](Cc2ccc(-c3ccccc3)cc2)NC(=O)[C@H](C(C)C)NC(=O)[C@H](Cc2c[nH]c3ccccc23)NC(=O)[C@H](CC(=O)O)NC(=O)[C@H](Cc2ccc(OCC(=O)O)cc2)NC(=O)[C@H](CN)NC(=O)CSC[C@@H](C(=O)N[C@@H](C)C(N)=O)NC(=O)[C@H]([C@@H](C)O)NC(=O)[C@H](C(C)C)NC(=O)[C@H](Cc2ccc(O)cc2)NC(=O)[C@H](CCN)NC1=O` [Compound 1686] ({CH2CO}-[Dap]Y(Carboxymethyl)DWV[Bip]E[Orn][dL][Dab]YVTCA-NH2; thioether N-14), the half-inhibitory concentration (IC50) was 215 nM.

For the compound `CCCC[C@@H]1NC(=O)[C@H](CCN)NC(=O)[C@@H](CC(C)C)NC(=O)[C@H](CCCN)NC(=O)[C@H](C(C)C)NC(=O)[C@H](Cc2ccc(-c3ccccc3)cc2)NC(=O)[C@H](CC(C)C)NC(=O)[C@H](Cc2c[nH]c3ccccc23)NC(=O)[C@H](CC(=O)O)NC(=O)[C@H](Cc2ccc(OCC(=O)O)cc2)NC(=O)[C@H](Cc2ccncc2)NC(=O)CSC[C@@H](C(=O)NCC(N)=O)NC(=O)[C@H](CO)NC(=O)[C@H](C(C)C)NC1=O` [Compound 1407] ({CH2CO}-[4Pal]Y(Carboxymethyl)DWL[Bip]V[Orn][dL][Dab][Nle]VSCG-NH2; thioether N-14), the IC50 was 7.9 nM.

Turning to `CC(C)C[C@@H]1NC(=O)[C@H](CCN)NC(=O)[C@@H](CC(C)C)NC(=O)[C@H](Cc2ccc(O)cc2)NC(=O)[C@H](C(C)C)NC(=O)[C@H](Cc2ccc(-c3ccccc3)cc2)NC(=O)[C@@H](C(C)C)NC(=O)[C@H](Cc2c[nH]c3ccccc23)NC(=O)[C@H](CC(=O)O)NC(=O)[C@H](Cc2ccc(O)cc2)NC(=O)[C@H](CC(N)=O)NC(=O)CSC[C@@H](C(=O)N[C@@H](C)C(N)=O)NC(=O)[C@@H]([C@@H](C)O)NC(=O)[C@H](C(C)C)NC1=O` [Compound 1031] ({CH2CO}-NYDW[dV][Bip]VY[dL][Dab]LV[d(aThr)]CA-NH2; thioether N-14), the 50% inhibitory concentration (IC50) stood at 87.4 nM.

Turning to `Cc1cccc(C[C@@H]2NC(=O)[C@H](CC(=O)O)NC(=O)[C@H](Cc3ccc(OCC(=O)O)cc3)NC(=O)[C@H](C(C)O)NC(=O)CSC[C@@H](C(=O)N[C@@H](CCN)C(N)=O)NC(=O)[C@H](C(C)O)NC(=O)[C@H](C(C)(C)O)NC(=O)[C@H](CC3CCCCC3)NC(=O)[C@H](CCN)NC(=O)[C@@H](CC(C)C)NC(=O)[C@H](CCCN)NC(=O)[C@H](CCCNC(N)=O)NC(=O)[C@H](Cc3ccc(-c4ccccc4)cc3)NC(=O)[C@H](C(C)C)NC2=O)c1` (stereo partly drawn) [Compound 2632] ({CH2CO}-[Thr(3ξ)]Y(Carboxymethyl)D[Phe(3-Me)]V[Bip][Cit][Orn][dL][Dab][Cha][Val(3-OH)][Thr(3ξ)]C[Dab]-NH2; thioether N-14), the IC50 stood at 8.8 nM.

For the compound `CC(C)C[C@H]1NC(=O)[C@H](CCCN)NC(=O)[C@H](Cc2ccc(C(=O)O)cc2)NC(=O)[C@H](Cc2ccc(-c3ccccc3)cc2)NC(=O)[C@H](Cc2c[nH]c3ccc(C#N)cc23)NC(=O)[C@H](Cc2cccc(C(F)(F)F)c2)NC(=O)[C@H](CC(=O)O)NC(=O)[C@H](Cc2ccc(C(=O)O)cc2)NC(=O)[C@H](CN2CCOCC2)NC(=O)CSC[C@@H](C(=O)N[C@@H](CCN)C(N)=O)NC(=O)[C@H](CCC(=O)O)NC(=O)[C@H](C(C)C)NC(=O)[C@H](CC2CCCCC2)NC(=O)[C@H](CCN)NC1=O` [Example 2740] ({CH2CO}-[Ala(morpholin-4-yl)][Phe(4-COOH)]D[Phe(3-CF3)][Trp(5-CN)][Bip][Phe(4-COOH)][Orn][dL][Dab][Cha]VEC[Dab]-NH2; thioether N-14), the IC50 turned out to be 4.8 nM.

For `CC[C@H](C)[C@@H]1NC(=O)[C@H](Cc2ccc(-c3ccccc3)cc2)NC(=O)[C@H](C(C)C)NC(=O)[C@H](Cc2c[nH]c3ccccc23)NC(=O)[C@H](CC(=O)O)NC(=O)[C@H](Cc2ccc(O)cc2)NC(=O)[C@H](CC(N)=O)NC(=O)CSC[C@@H](C(=O)N[C@@H](C)C(N)=O)NC(=O)[C@H]([C@@H](C)O)NC(=O)[C@H](C(C)C)NC(=O)[C@H](CC(C)C)NC(=O)[C@H](CCN)NC(=O)[C@@H](CC(C)C)NC(=O)[C@H](CCCN)NC1=O` [Compound 1038] ({CH2CO}-NYDWV[Bip]I[Orn][dL][Dab]LVTCA-NH2; thioether N-14), the IC50 was 7 nM.

For the compound `CC(C)C[C@@H]1NC(=O)[C@H](Cc2c[nH]c3ccccc23)NC(=O)[C@H](CC(=O)O)NC(=O)[C@H](Cc2ccncc2)NC(=O)[C@H](CN)NC(=O)CSC[C@@H](C(=O)NCC(N)=O)NC(=O)[C@H](CO)NC(=O)[C@H](C(C)C)NC(=O)[C@H](CC2CCCCC2)NC(=O)[C@H](CC(N)=O)NC(=O)[C@@H](CC(C)C)NC(=O)[C@H](CCCN)NC(=O)[C@H](C(C)C)NC(=O)[C@H](Cc2ccc(-c3ccccc3)cc2)NC1=O` [Compound 1337] ({CH2CO}-[Dap][4Pal]DWL[Bip]V[Orn][dL]N[Cha]VSCG-NH2; thioether N-14), the 50% inhibitory concentration (IC50) was determined as 27 nM.

Regarding `Cc1cccc(C[C@@H]2NC(=O)[C@H](CC(=O)O)NC(=O)[C@H](Cc3ccc(C(=O)O)cc3)NC(=O)[C@H](Cc3ccc(OCC(=O)O)cc3)NC(=O)CSC[C@@H](C(=O)N[C@@H](C)C(N)=O)NC(=O)[C@H]([C@@H](C)O)NC(=O)[C@H](C(C)C)NC(=O)[C@H](CC3CCCCC3)NC(=O)[C@H](CCN)NC(=O)[C@@H](CC(C)C)NC(=O)[C@H](CCCN)NC(=O)[C@H](CCN)NC(=O)[C@H](Cc3ccc(-c4ccccc4)cc3)NC(=O)[C@H](C(C)C)NC2=O)c1` [Compound 1415], the half-maximal inhibitory concentration (IC50) was determined as 13.8 nM.

With `CC(C)C[C@@H]1NC(=O)[C@H](Cc2c[nH]c3ccccc23)NC(=O)[C@H](CC(=O)O)NC(=O)[C@H](Cc2ccc(O)cc2)NC(=O)[C@H](Cc2ccccc2)NC(=O)CSC[C@@H](C(=O)N[C@@H](C)C(N)=O)NC(=O)[C@H](CO)NC(=O)[C@H](C(C)C)NC(=O)[C@H](CC(C)C)NC(=O)[C@H](CC(N)=O)NC(=O)[C@@H](CC(C)C)NC(=O)[C@H](CCCN)NC(=O)[C@H](CCC(=O)O)NC(=O)[C@H](Cc2ccc(-c3ccccc3)cc2)NC1=O` [Compound 1235] ({CH2CO}-FYDWL[Bip]E[Orn][dL]NLVSCA-NH2; thioether N-14), the half-maximal inhibitory concentration (IC50) is 21 nM.

With `CC(C)C[C@H]1NC(=O)[C@H](CCCN)NC(=O)[C@H](CCCNC(N)=O)NC(=O)[C@H](Cc2ccc(-c3ccccc3)cc2)NC(=O)[C@H](C(C)C)NC(=O)[C@H](Cc2c[nH]c3ccccc23)NC(=O)[C@H](CC(=O)O)NC(=O)[C@H](Cc2cccc(F)c2)NC(=O)[C@H](CN)NC(=O)CSC[C@@H](C(=O)N[C@@H](C)C(N)=O)NC(=O)[C@H]([C@@H](C)O)NC(=O)[C@H](C(C)C)NC(=O)[C@H](CC2CCCCC2)NC(=O)[C@H](CCN)NC1=O` [Compound 2097] ({CH2CO}-[Dap][Phe(3-F)]DWV[Bip][Cit][Orn][dL][Dab][Cha]VTCA-NH2; thioether N-14), the IC50 was found to be 18.8 nM.

As to `CC(C)C[C@H]1NC(=O)[C@H](CCCN)NC(=O)[C@H](CCC(=O)O)NC(=O)[C@H](Cc2ccc(-c3ccccc3)cc2)NC(=O)[C@H](C(C)C)NC(=O)[C@H](Cc2ccccc2F)NC(=O)[C@H](CC(=O)O)NC(=O)[C@H](Cc2ccc(C#N)cc2)NC(=O)[C@H](Cc2ccncc2)NC(=O)CSC[C@@H](C(=O)N[C@@H](C)C(N)=O)NC(=O)[C@H]([C@@H](C)O)NC(=O)[C@H](C(C)C)NC(=O)[C@H](CC2CCCCC2)NC(=O)[C@H](CCN)NC1=O` [Compound 2216], the IC50 was 19.3 nM.

These data come from patent US20250163104A1, “MACROCYCLIC IMMUNOMODULATORS” (priority 2021, published 2025).
